The structures appear in SMILES notation.

The text below walks through data of patent publication US20130116227A1, “BIARYL AMIDE DERIVATIVE OR PHARMACEUTICALLY ACCEPTABLE SALT THEREOF” (DAINIPPON SUMITOMO PHARMA CO., LTD., priority 2010, published 2013).

One experiment deals with T1, aldosterone receptor (Rattus norvegicus, UniProt P22199).
T1 construct: centrifuged at 105,000 g for 30 minutes, and then a supernatant was collected as a renal soluble fraction; from tissue; host or cells: rat kidney (adrenalectomized rat), 105,000 g supernatant (cytosol)
T1 sequence (P22199 1-981): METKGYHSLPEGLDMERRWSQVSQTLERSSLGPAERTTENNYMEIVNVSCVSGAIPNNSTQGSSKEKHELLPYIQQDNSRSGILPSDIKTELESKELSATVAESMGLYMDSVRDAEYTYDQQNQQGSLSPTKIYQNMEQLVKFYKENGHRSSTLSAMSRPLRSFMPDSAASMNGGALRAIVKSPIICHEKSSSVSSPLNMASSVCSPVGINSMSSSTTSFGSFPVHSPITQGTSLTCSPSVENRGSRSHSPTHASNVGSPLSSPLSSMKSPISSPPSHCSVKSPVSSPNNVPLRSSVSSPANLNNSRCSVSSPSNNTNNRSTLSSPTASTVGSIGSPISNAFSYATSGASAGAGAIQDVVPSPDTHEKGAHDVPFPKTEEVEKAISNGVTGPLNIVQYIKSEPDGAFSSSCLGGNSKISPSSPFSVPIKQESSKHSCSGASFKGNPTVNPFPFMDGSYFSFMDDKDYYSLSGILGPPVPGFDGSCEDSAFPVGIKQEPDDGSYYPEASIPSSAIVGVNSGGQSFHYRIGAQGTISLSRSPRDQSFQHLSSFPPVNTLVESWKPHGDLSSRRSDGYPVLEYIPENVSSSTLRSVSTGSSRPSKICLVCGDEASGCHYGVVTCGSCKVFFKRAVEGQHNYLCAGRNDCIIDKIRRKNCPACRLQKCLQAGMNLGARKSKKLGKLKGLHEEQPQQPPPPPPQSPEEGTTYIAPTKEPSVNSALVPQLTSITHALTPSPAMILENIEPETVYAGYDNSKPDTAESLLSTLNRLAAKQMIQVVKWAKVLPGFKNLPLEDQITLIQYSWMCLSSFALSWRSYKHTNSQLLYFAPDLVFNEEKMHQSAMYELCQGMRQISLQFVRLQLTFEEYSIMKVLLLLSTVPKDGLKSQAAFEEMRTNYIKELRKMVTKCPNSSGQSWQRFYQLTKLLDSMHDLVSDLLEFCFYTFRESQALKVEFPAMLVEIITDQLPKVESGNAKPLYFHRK
The experiment in a line: Binding inhibition test for aldosterone receptor ([3H]aldosterone, rat renal soluble fraction). The conditions noted are these: [3H]aldosterone 2 nM, rat renal soluble fraction, in the presence of 2 μM RU-486, 4° C. about 18 hours; read-out: MR IC50. In outline:
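Renal soluble fraction (105,000 g supernatant, pH 7.4 Tris/sucrose/molybdate/DTT) from adrenalectomized rats, incubated with 2 nM [3H]aldosterone plus 2 μM RU-486, 4 °C, ~18 h. Bound ligand separated by dextran-coated charcoal, counted by scintillation; nonspecific binding with 2 μM aldosterone. Percent binding inhibition over 0.1–10000 nM test compound.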
As to `COc1cc(NC(=O)c2ccc(-c3ccc(F)cc3C(F)(F)F)c(CNCC(F)F)c2)ccc1S(N)(=O)=O` [Example 486], the IC50 (usually the midpoint of a concentration-inhibition curve) was below 10000 nM. Consider `COc1cc(C(=O)Nc2ccc(-c3ccccc3Cl)c(CNCC(F)F)c2)ccc1S(N)(=O)=O` [Example 488], for which the IC50 is below 10000 nM. The same measure, in the same setting: then `COc1cc(C(=O)Nc2ccc(-c3ccccc3OC(F)(F)F)c(C)c2)ccc1S(N)(=O)=O` [Example 499], with 1200 nM.

Consider `CCCN(Cc1cc(C(=O)Nc2ccc(S(C)(=O)=O)cc2)ccc1-c1ccccc1OC(F)(F)F)CC1CC1` [Example 500], for which the IC50 is 190 nM. With `CCCN(CCC)Cc1cc(C(=O)Nc2ccc(S(C)(=O)=O)cc2)ccc1-c1ccccc1OC(F)(F)F` [Example 505], the IC50 worked out at 290 nM. The same measure, in the same setting: then `CS(=O)(=O)c1ccc(NC(=O)c2ccc(-c3ccccc3OC(F)(F)F)c(CN3CCC3)c2)cc1` [Example 508], with below 10000 nM. Still for that read-out and setting: with `CS(=O)(=O)c1ccc(NC(=O)c2ccc(-c3ccccc3OC(F)(F)F)c(CN3CC[C@@H](F)C3)c2)cc1` [Example 510] the figure was 280 nM; with `CS(=O)(=O)c1ccc(NC(=O)c2ccc(-c3ccccc3OC(F)(F)F)c(CNC3CC3)c2)cc1` [Example 513], 700 nM.

With `Cn1nccc1CNCc1cc(C(=O)Nc2ccc(S(C)(=O)=O)cc2)ccc1-c1ccccc1OC(F)(F)F` [Example 520], the IC50 was 2900 nM. For the compound `CS(=O)(=O)c1ccc(NC(=O)c2ccc(-c3ccccc3OC(F)(F)F)c(CNc3ncccn3)c2)cc1` [Example 526], the IC50 was found to be 2200 nM. As for `COc1cc(C(=O)Nc2ccc(-c3ccccc3C(F)(F)F)c(CNCC(F)(F)F)c2)ccc1S(N)(=O)=O` [Example 528], the IC50 is below 10000 nM.

In the case of `COc1cc(NC(=O)c2ccc(-c3cccnc3-c3cccnc3)c(C)c2)ccc1S(N)(=O)=O` [Example 531], the IC50 is below 10000 nM. Regarding `COc1cc(NC(=O)c2ccc(-c3cccnc3C3CC3)c(C)c2)ccc1S(N)(=O)=O` [Example 533], the IC50 is 1600 nM.

Turning to `COc1cc(NC(=O)c2ccc(-c3cccc4cccnc34)c(C)c2)ccc1S(N)(=O)=O` [Example 537], the 50% inhibitory concentration (IC50) came out at 5400 nM. Still for that read-out and setting: with `COCc1cc(NC(=O)c2ccc(S(N)(=O)=O)c(OC)c2)ccc1-c1cccnc1C1CC1` [Example 545] the figure was below 10000 nM; with `CCOCc1cc(C(=O)Nc2ccc(S(N)(=O)=O)c(OC)c2)ccc1-c1cccnc1OCC` [Example 547], below 10000 nM.

On to `COc1cc(C(=O)Nc2ccc(-c3ccccc3C(F)(F)F)c(Cc3nccn3C)c2)ccc1S(N)(=O)=O` [Example 550], for which the IC50 was determined as 620 nM. On the same count and under the same terms, with `COc1cc(NC(=O)c2ccc(-c3ccccc3OC(F)(F)F)c(N)c2)ccc1S(N)(=O)=O` [Example 560] the figure was 240 nM; with `CCN(CC)c1cc(C(=O)Nc2ccc(S(N)(=O)=O)c(OC)c2)ccc1-c1ccccc1OC(F)(F)F` [Example 561], 100 nM; with `COc1cc(NC(=O)c2ccc(-c3ccccc3OC(F)(F)F)c(NCc3nccn3C)c2)ccc1S(N)(=O)=O` [Example 577], below 10000 nM.

`COC(=O)Nc1cc(C(=O)Nc2ccc(S(N)(=O)=O)c(OC)c2)ccc1-c1ccccc1OC(F)(F)F` [Example 578]: the IC50 was below 10000 nM. The same measure, in the same setting: then `CCOC(=O)Nc1cc(C(=O)Nc2ccc(S(N)(=O)=O)c(OC)c2)ccc1-c1ccccc1CC` [Example 581], with below 10000 nM; and `COc1cc(NC(=O)c2ccc(-c3ccccc3OC3CC3)c(CO)c2)ccc1S(N)(=O)=O` [Example 590], with below 10000 nM.

With `COc1ccc(-c2ccc(C(=O)Nc3ccc(S(N)(=O)=O)c(OC)c3)cc2CNCC(F)F)c(C)c1` [Example 592], the IC50 is below 10000 nM. Same read-out and setting: with `COc1cc(F)ccc1-c1ccc(C(=O)Nc2ccc(S(N)(=O)=O)c(OC)c2)cc1CNCC(F)F` [Example 593] the figure was below 10000 nM; with `COc1cccc(NC(=O)c2ccc(-c3ccccc3)c(CN3CCCCC3)c2)c1` [compound 1], above 10000 nM; with `NS(=O)(=O)c1cccc(NC(=O)c2ccc(-c3ccccc3)c(CN3CCCCC3)c2)c1` [compound 2], above 10000 nM.

The experiment is the same for the next values; noted with them: rat renal soluble fraction, [3H] aldosterone 2 nM, in the presence of 2 μM RU-486.
In the case of `COc1cccc(NC(=O)c2ccc(-c3ccccc3)c(CN3CCCCC3)c2)c1` [compound 1, reference compound], the “binding affinities for aldosterone receptor” value was “very few binding affinities”. Same read-out and setting: with `NS(=O)(=O)c1cccc(NC(=O)c2ccc(-c3ccccc3)c(CN3CCCCC3)c2)c1` [compound 2, reference compound] the entry was “very few binding affinities”.

The experiment is the same for the next values; noted with them: read-out: Inhibition rates (%) in 100 μM.
With `COc1cccc(NC(=O)c2ccc(-c3ccccc3)c(CN3CCCCC3)c2)c1` [compound 1], the inhibition (as a rule, the change of the read-out against control, counted positive when it falls) at 100 µM is 7%.

As to `NS(=O)(=O)c1cccc(NC(=O)c2ccc(-c3ccccc3)c(CN3CCCCC3)c2)c1` [compound 2], the inhibition at 100 µM is 11%.

The next experiment concerns normal rat. Put plainly: Antagonism (in vivo antagonist activity) against reduction of Na/K ratios in DOCA induced urine of normal rat. The note with it: oral administration 30 minutes before DOCA 0.3 mg/kg s.c., urine collected for 8 hours. The protocol:
Antagonism (In Vivo Antagonist Activity) Against Reduction of Na/K Ratios in Deoxycorticosterone Acetate (DOCA) Induced Urine of Normal Rat
A rat was encaged in a metabolism cage and was collected urine for 8 hours. When a test article was orally administered, it was administered in 5 ml/kg of dosage solution amounts using 0.5% methylcellulose as a solvent. DOCA was dissolved in corn oil in 0.3 mg/ml, and was subcutaneously administered in 1 ml/kg (0.3 mg/kg). Administration timing for a test article was 30 minutes before DOCA administration. 20 ml/kg of Solution amounts of saline was orally administered when administering DOCA in order to stabilize urine amounts and to secure enough amounts. Collected urine was analyzed its amounts, and then electrolyte (sodium: Na^+ and potassium: K^+) concentrations in urine were analyzed by an automatic biochemical analyzer (manufactured by JEOL Ltd., JCA-BM1650) to calculate ratios of Na^+ and K^+.
For `COC(=O)[C@@H]1CC2=CC(=O)CC[C@]2(C)[C@@]23O[C@@H]2C[C@@]2(C)[C@@H](CC[C@@]24CCC(=O)O4)[C@H]13` [eplerenone], the “suppression of reduction of Na/K ratios in DOCA-induced urine” value was “suppressed reduction of Na/K ratios in DOCA-induced urine in a dose-dependent manner”.
